Data on three molecules can be found in publication PMC12668310, “High‐Throughput Synthesis and Screening of a Cyanimide Library Identifies Selective Inhibitors of ISG15‐Specific Protease mUSP18” (Angewandte Chemie (International Ed. in English), 2025).

One may read the IC50 as the concentration that gives 50% inhibition.

The test system of assay [1] is cellular ISGylation in EL4 cells. In words: ISGylation accumulation in mouse IFN-β-stimulated EL4 cells (anti-mISG15 western blot). It is filed as cell-based. As to conditions: 4 h treatment, anti-mISG15 blot. On the procedure:
(§1) Figure 6 Inhibition of murine USP18 activity in living cells. a) Gel‐based ABPP potency assessment using a Rho‐mISG15ct‐PA probe in HEK293T cells overexpressing Flag‐mUSP18. At 24 h following transfection, cells were incubated with DMSO or increasing concentrations of indicated inhibitors for 4 h, lysed, and treated with Rho‐mISG15ct‐PA probe. Top panel: fluorescence scan. Middle panel: anti‐Flag western blot. Bottom panel: anti‐GAPDH western blot confirms equal loading. b) Accumulation of ISGylation in mouse IFN‐β‐stimulated EL4 cells. At 24 h following mouse IFN‐β treatment, cells were incubated with DMSO or increasing concentrations of indicated inhibitors for 4 h, lysed, and treated with Rho‐mISG15ct‐PA probe. Top panel: anti‐mISG15 western blot. Middle panel: fluorescence scan. Bottom panel: anti‐β‐actin western blot confirms equal loading.
Ultimately, we were interested in whether USP18 inhibitor treatment could result in a relevant phenotype in cells. USP18 is the major deISGylase to remove ISG15 from target proteins, and genetic inactivation of USP18 isopeptidase activity leads to enhanced ISGylation in vivo and in cells.^[ [26] ^] We therefore examined whether the USP18 inhibitors enhance cellular ISGylation. Accordingly, EL4 cells were stimulated with IFN‐β to induce the ISG15 machinery, prior to treatment with the inhibitors. After cell lysis and SDS‐PAGE, ISGylated proteins were stained by immunoblotting with an ISG15 antibody (Figure 6b, top panel). […] To confirm inhibition of endogenous USP18 in these experiments, samples were post‐lysis treated with Rho‐mISG15ct‐PA probe.
Generation of ISGylation and in-cell inhibition assay
Mouse EL4 cells were stimulated with 300 U/mL mouse IFN-β. At 24 hours following stimulation, cells were incubated with indicated compounds at the indicated final concentrations at 37 °C for 4 hours, then washed twice with PBS and harvested for further […]
Activity-based probe labelling
The in-cell inhibition of DUBs and mUSP18 was assessed using activity-based probe labelling assays. In brief, cell pellets were resuspended in HR buffer (50 mM Tris-HCl, 5 mM MgCl 2, 250 mM sucrose, 2 mM TCEP and a Protease inhibitor tablet (Roche), pH 7.4), and lysed by sonication (Bioruptor, Diagenode, high intensity for 10 minutes with an ON/OFF cycle of 30 seconds) at 4°C. 40 μg clarified cell lysate was incubated with Rhodamine-mISG15ct-propargylamide probe[1] (final concentration 1 μM) or Rhodamine-Ubiquitin-propargylamide probe[13] (final concentration 1 μM) at 37 °C for 30 min. Reactions were stopped by the addition of LDS (lithium dodecyl sulfate) sample buffer (Invitrogen Life Technologies, Carlsbad, CA, USA) containing 2.5% β-mercaptoethanol, followed by boiling for 7 minutes.
SDS-PAGE, in-gel fluorescence scanning, and immunoblotting
Samples were resolved on precast Bis-Tris NuPAGE Gels (Invitrogen, including 4-12%, and 10% for different samples) using MOPS buffer (Invitrogen Life Technologies, Carlsbad, CA, USA). For fluorescence scan, labeled enzymes were visualized by in-gel fluorescence using a Typhoon FLA 9500 imaging system (GE Healthcare Life Sciences) (Rhodamine channel for probe, Cy5 channel for protein marker).
For immunoblotting, proteins were transferred to a nitrocellulose membrane (Protan BA85, 0.45 μm, GE Healthcare) at 300 mA for 3 hours. […]
(In general: Immunoblotting shows a protein as a band on a membrane.)

The target in assay [2] is T1, Flag-mUSP18 (Mus musculus, UniProt Q9WTV6).
T1 construct: expressed in transfected cells; host or cells: HEK293T
T1 sequence (Q9WTV6 1-368): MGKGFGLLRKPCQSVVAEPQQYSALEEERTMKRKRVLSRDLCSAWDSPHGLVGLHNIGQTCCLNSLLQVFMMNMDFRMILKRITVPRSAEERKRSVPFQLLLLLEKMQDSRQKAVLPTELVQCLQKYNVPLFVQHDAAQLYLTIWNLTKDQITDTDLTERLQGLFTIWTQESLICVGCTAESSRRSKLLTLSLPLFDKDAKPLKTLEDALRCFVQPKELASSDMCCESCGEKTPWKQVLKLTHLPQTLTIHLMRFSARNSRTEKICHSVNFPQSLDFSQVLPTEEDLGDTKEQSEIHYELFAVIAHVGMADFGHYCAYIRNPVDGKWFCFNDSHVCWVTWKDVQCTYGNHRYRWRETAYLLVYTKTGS
The assay is described as follows: Gel-based ABPP with Rho-mISG15ct-PA probe in HEK293T cells overexpressing Flag-mUSP18. It is filed as cell-based, murine. As to conditions: live HEK293T cells, Flag-mUSP18, 4 h treatment. As for the experimental part:
To assess the cellular target engagement and cell permeability of these inhibitors, we performed activity‐based protein profiling. […] Following washing and cell lysis, cell extracts were incubated with a Rhodamine‐tagged murine ISG15 C‐terminal domain propargylamide activity‐based probe (Rho‐mISG15ct‐PA), which covalently labels the active site cysteine of active deISGylating enzymes.^[ [41] ^] The labelled enzymes were resolved by SDS‐PAGE and imaged by in‐gel fluorescence, where inhibition of USP18 is reflected by disappearance of the USP18‐probe‐labelled bands around 55 kDa (Figures 6a, S11A). All three inhibitors engaged with cellular mUSP18 in a dose‐dependent manner, with BB07CA902 and BB07CA28 showing efficient inhibition already at 1 µM concentration. […] The in‐cell selectivity of these inhibitors for USP18 over DUBs was confirmed in a similar ABPP experiment using a Rhodamine‐tagged ubiquitin propargylamide probe (Rho‐Ub‐PA),^[ [42] ^] which labels the active site cysteine of all active cysteine DUBs.
as §1, with “Top panel: anti‐mISG15 western blot.” left out, “Bottom panel: anti‐β‐actin western blot confirms equal loading.” left out
Samples were then diluted 3-fold with water and analyzed by mass spectrometry by injecting 2 μL into a Waters XEVO-G2 XS Q-TOF mass spectrometer equipped with an electrospray ion source in positive mode (capillary voltage 1.2 kV, desolvation gas flow 900 L/h, T = 60 °C) with a resolution of R = 26,000. […]

The target in assay [3] is T2, UCHL1 (Homo sapiens, UniProt P09936).
T2 construct: (1-223); made in house
T2 sequence (P09936 1-223): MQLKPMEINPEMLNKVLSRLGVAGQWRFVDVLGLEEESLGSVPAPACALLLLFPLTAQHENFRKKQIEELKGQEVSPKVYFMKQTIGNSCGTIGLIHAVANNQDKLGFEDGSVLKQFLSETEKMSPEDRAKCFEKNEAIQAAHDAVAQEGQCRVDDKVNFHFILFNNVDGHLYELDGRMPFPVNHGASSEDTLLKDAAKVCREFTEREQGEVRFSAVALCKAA
In words: IC50 determination, fluorogenic Ub-Rho-morpholine activity assay. The assay is classed as biochemical. As to conditions: after 30 min incubation; purified compound.

The target in assay [4] is T3, USP7 (Homo sapiens, UniProt Q93009).
T3 construct: (1-1102); GST (cleaved yes); made in house
The assay is described as above. It is filed as biochemical. As to conditions: after 30 min incubation; purified compound.

Assay [5] concerns the target T4, USP32 (Homo sapiens, UniProt Q8NFA0).
T4 construct: (1-1604); His-tag (N); made in house
The description is as above. It is filed as biochemical. Conditions: after 30 min incubation; purified compound.

In assay [6] the target is T5, UCHL3 (Homo sapiens, UniProt P15374).
T5 construct: (1-230); made in house
T5 sequence (P15374 1-230): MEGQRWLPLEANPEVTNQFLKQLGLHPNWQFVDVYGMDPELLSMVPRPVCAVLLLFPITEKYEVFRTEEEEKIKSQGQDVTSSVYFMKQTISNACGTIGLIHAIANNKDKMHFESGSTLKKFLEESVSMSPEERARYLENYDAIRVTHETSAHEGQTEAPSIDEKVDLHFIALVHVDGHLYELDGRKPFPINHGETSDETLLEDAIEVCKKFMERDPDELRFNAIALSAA
The assay is described as above. It is filed as biochemical. Conditions: after 30 min incubation; purified compound.

Assay [7] has as its target USP16 (Homo sapiens, UniProt Q9Y5T5). In words: biochemical.
Protocol: This panel included five proteases from the USP family, two from the UCH family, and one OTU. The IC50 values were determined in a well‐established biochemical activity assay using the fluorogenic substrate Ub‐Rho‐morpholine.^[ [33] ^]
(§2) Enzymes were pre-incubated with a concentration series of the compounds for 30 minutes at
(§3) room temperature, before addition of the substrate and direct read-out by fluorescence
(§4) intensity. Data is presented as mean ± SD, n=3.
USP16 Full length N-terminal His-tag Q9Y5T5 In-house, [Mons, 2 nM
IC50 and kinact/KI determination
(§5) The assays were performed at room temperature in “nonbinding surface flat bottom low flange”
(§6) TrisꞏHCl, 100 mM NaCl, pH 7.6, 2.0 mM cysteine, 1 mg/mL 3-[(3-cholamidopropyl)-
(§7) dimethylammonio]propanesulfonic acid (CHAPS), and 0.5 mg/mL γ-globulins from bovine
(§8) blood (BGG). […] The compounds were dissolved in 10
(§9) mM DMSO stocks, and appropriate volumes were transferred to the empty plates using a
(§10) Labcyte Echo550 acoustic dispenser. A DMSO back-fill was performed to obtain equal volumes of DMSO (400 μL) in each well. N-ethylmaleimide (NEM, 10 mM) was used a positive
(§11) steps were performed on a Biotek MultiflowFX liquid dispenser. A 10 μL portion of buffer was added and the plate was vigorously shaken for 20s. Next, 5 μL of recombinant enzyme (4x final concentration) was added followed by incubation for 1h. A 5 μL portion of the substrate
(§12) (Ub-RhoMP[2] for all DUBs, ISG15ct-RhoMP (vide supra) for USP18 and Z-FR-AMC [Bachem,
(§13) RhoMP, 10 µM for Z-FR-AMC), and the increase in fluorescence over time was recorded using
(§14) excitation 360 nm, emission 450 nm for AMC). The initial enzyme velocities were calculated
(§15) from the slopes, normalized to the positive and negative controls, and plotted against the
(§16) inhibitor concentrations using the built-in equation “[inhibitor] vs response − variable slope
(§17) (four parameters), least-squares fit” with constraints “Bottom = 0” and “Top = 100” in GraphPad
(§18) Prism 7 software to obtain the IC50 values.
(§19) All data fitting and calculations were done using GraphPad Prism 7 software.
In assay [8] the target is T6, mUSP18 (Mus musculus, UniProt Q9WTV6).
T6 construct: (46-368); His-tag (N); made in house
T6 sequence (Q9WTV6 46-368): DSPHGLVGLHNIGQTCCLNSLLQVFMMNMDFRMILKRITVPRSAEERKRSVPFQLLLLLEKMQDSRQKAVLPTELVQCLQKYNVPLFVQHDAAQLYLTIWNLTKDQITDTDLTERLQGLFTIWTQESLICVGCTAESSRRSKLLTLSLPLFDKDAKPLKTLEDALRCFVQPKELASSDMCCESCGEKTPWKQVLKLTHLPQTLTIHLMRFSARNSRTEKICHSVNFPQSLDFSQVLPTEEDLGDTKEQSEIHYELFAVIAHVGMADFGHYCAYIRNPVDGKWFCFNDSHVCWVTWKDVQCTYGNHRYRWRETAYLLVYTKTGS
The assay is described as follows: IC50 determination, fluorogenic ISG15CT-Rho-morpholine activity assay. It is filed as biochemical, murine. As to conditions: after 30 min incubation; purified compound; ISG15CT-Rho-morpholine substrate.

For assay [9], the target named is T7, USP30 (Homo sapiens, UniProt Q70CQ3).
T7 sequence (Q70CQ3 57-517): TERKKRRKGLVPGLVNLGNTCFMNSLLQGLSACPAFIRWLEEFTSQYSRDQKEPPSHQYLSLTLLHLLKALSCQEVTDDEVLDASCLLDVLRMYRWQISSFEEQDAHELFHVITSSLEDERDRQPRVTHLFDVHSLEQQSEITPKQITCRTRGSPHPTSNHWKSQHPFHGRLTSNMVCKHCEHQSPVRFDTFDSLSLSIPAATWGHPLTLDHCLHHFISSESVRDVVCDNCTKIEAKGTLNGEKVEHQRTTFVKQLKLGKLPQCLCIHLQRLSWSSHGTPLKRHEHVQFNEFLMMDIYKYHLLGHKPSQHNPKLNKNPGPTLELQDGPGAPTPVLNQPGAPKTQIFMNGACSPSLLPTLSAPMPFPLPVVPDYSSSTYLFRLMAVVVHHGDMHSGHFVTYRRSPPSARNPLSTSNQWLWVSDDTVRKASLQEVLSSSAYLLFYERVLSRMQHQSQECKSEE
In words: biochemical.
Protocol: This panel included five proteases from the USP family, two from the UCH family, and one OTU. The IC50 values were determined in a well‐established biochemical activity assay using the fluorogenic substrate Ub‐Rho‐morpholine.^[ [33] ^] For USP18, which is unreactive to Ub but specific for ISG15, we used the ISG15CT‐Rho‐morpholine (consisting of the C‐terminal domain of ISG15) substrate to monitor its activity (see Supporting Information for preparation of this substrate).
as §2, §3, §4
room temperature, followed by the addition of substrate and direct read-out by fluorescence
IC50 and kinact/KI determination
as §5, §6, §7, §8, §9, §10, §11, §12, §13, §14, §15, §16, §17, §18, §19

The structures appear in SMILES notation.

T4 sequence (Q8NFA0 whole entry): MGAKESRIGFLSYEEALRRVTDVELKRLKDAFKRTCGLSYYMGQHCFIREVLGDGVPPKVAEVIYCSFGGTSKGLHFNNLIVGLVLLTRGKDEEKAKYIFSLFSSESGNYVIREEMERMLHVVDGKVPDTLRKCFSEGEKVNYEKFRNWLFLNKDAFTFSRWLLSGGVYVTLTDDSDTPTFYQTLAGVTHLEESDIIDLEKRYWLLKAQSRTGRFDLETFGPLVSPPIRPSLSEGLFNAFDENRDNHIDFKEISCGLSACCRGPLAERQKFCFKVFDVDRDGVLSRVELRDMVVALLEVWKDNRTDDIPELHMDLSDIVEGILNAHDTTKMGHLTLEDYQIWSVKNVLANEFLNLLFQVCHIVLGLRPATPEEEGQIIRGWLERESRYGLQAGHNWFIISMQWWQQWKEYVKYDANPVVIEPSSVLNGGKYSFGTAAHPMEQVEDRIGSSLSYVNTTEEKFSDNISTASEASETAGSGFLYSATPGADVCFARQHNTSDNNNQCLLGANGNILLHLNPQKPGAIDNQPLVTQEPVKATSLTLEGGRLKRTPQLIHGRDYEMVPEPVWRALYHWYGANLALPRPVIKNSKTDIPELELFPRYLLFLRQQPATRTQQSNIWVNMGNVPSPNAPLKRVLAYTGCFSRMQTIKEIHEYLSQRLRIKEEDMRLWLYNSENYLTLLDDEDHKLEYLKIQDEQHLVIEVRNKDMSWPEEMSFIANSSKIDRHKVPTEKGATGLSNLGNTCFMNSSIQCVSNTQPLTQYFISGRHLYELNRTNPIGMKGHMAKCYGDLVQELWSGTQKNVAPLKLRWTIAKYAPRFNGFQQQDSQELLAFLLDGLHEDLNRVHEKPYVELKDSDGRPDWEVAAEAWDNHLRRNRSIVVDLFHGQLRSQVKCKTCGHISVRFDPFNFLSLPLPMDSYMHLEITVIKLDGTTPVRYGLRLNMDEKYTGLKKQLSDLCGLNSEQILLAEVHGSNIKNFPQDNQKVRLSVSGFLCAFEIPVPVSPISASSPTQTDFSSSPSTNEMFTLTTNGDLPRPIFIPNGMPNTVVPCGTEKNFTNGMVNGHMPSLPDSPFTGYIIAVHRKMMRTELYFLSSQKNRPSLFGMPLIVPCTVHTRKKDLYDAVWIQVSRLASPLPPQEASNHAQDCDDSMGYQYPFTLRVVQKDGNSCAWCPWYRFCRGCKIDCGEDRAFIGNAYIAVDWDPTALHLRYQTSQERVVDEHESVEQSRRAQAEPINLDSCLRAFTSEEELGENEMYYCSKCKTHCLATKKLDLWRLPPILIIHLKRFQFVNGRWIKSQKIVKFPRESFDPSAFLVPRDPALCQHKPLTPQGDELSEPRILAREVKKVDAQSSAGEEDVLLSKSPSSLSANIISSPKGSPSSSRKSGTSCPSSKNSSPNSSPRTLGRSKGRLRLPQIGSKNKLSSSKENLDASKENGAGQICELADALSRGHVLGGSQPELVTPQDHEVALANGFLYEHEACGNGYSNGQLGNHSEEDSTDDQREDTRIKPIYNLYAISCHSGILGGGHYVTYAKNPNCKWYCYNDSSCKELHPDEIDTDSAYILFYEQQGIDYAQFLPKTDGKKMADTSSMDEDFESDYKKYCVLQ
Chain of USP16 (Q9Y5T5 22-823): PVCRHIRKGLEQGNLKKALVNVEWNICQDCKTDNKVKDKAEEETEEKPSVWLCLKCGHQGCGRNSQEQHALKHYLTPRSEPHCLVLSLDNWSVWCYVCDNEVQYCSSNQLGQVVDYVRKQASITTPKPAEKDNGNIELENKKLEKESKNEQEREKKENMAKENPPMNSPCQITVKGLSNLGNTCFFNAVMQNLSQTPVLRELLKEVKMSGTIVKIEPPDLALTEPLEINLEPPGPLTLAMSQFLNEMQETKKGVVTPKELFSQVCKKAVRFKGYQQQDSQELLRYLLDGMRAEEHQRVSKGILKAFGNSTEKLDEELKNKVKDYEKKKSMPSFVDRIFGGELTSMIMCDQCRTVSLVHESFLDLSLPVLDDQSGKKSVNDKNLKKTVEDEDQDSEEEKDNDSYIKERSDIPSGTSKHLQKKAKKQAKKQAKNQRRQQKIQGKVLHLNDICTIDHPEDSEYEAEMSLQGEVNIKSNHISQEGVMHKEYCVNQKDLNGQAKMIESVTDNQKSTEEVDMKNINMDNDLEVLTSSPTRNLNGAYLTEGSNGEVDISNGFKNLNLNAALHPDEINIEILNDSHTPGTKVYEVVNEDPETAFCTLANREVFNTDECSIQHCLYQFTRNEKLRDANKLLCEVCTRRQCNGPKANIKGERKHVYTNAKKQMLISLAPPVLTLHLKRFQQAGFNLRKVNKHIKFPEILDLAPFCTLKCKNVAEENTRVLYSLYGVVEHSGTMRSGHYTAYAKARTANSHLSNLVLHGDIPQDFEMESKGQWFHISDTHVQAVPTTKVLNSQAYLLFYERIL
T3 sequence (Q93009 whole entry): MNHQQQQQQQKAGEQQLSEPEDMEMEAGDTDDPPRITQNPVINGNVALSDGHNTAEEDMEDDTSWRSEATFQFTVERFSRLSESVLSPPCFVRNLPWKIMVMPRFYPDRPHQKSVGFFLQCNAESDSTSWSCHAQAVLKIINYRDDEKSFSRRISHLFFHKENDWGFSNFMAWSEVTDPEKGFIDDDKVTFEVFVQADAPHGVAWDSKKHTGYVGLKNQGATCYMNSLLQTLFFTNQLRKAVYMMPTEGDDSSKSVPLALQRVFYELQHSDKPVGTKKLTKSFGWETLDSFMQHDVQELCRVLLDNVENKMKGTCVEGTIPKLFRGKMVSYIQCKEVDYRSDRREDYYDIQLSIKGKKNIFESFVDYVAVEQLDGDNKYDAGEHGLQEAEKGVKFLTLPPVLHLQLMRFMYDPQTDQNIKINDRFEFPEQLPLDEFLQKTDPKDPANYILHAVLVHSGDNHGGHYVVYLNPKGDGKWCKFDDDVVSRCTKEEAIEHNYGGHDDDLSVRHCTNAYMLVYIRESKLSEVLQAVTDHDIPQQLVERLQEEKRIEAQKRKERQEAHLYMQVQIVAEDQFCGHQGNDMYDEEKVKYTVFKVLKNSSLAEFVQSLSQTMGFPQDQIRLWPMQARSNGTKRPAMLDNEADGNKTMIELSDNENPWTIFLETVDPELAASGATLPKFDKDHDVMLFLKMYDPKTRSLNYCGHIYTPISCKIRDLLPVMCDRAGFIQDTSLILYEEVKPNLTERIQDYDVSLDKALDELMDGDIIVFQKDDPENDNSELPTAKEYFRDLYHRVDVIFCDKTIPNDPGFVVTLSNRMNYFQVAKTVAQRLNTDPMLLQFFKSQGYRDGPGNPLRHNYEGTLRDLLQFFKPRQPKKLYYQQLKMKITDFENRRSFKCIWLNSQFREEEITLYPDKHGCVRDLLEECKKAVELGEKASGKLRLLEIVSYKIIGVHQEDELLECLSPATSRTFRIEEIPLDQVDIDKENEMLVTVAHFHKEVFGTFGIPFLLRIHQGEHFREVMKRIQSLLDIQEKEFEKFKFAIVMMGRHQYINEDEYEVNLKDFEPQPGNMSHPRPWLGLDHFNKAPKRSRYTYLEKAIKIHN

With `Cc1cc(C(=O)N[C@@H]2C[C@@H]3CN(C#N)C[C@@H]3C2)ccc1C(C)C` [BB06CA902], the “effect on cellular ISGylation” value in [1] was “hardly affected ISGylation”. Moreover, the “concentration at which inhibition of mUSP18 probe labelling is observed” value in assay [2] amounted to 100 µM.

Turning to `N#CN1CC[C@@H](NC(=O)c2ccc(N3CCCC3)cc2F)C1` [Compound 3], the IC50 in [3] is more than 200 µM; in assay [4] it was 171 µM; in assay [5], 59 µM; in [6], more than 200 µM; in [7] it was more than 200 µM; in [8], 5.5 µM. For the same molecule, 2.4 µM corresponded to half-maximal inhibition in assay [9] (IC50).

In the case of `N#CN1CC[C@@H](NC(=O)c2ccc(F)c(F)c2)C1` [Compound 4], the half-maximal inhibitory concentration (IC50) was more than 200 µM in assay [3]; 210 µM in assay [4]; 184 µM in assay [5]; more than 200 µM in [6]; 262 µM in assay [7]; 9.8 µM in assay [8]. The molecule further registered an IC50 in [9] of 0.89 µM.
